From patent US6565872B2, “Polymeric system for drug delivery and solute separation” (priority 1999, dated 2003)

Assay: Permeation of solutes through the composite membrane, side-by-side diffusion cell
Format: physicochemical
Conditions: for P(45° C.)/P(20° C.) in 0.0001M KCl: permeability ratio across composite membrane, 45° C. vs 20° C.
Experimental: Permeation of solutes of various molecular sizes through the membrane was determined using a side-by-side diffusion cell. The solution in the receptor cell was pumped to a UV cell with a peristaltic pump. The amount of solute permeated was assayed by a diode array spectrophotometer (HP 8452A). The pH of the medium was adjusted either by addition of sodium hydroxide and hydrochloric acid.

| Compound | ratio of the permeability at 40° C. to that at 25° C. (composite membrane, DDI water (FIG. 5)) | P(45° C.)/P(20° C.) in 0.0001M KCl | penetration through the membrane (at the studied temperatures) | permeability at 45° C. relative to that at 20° C. (composite membrane, in the presence of CaCl2 (3.33×10^−2 mM, FIG. 7), calculated from slopes) | permeation across the membrane into water at 25° C. (water, 25° C. compared with 40° C. (FIG. 6)) |
| --- | --- | --- | --- | --- | --- |
| CC(=O)Nc1ccc(O)cc1 [Acetaminophen] | about 2.6 times | 2.20 | – | – | – |
| Chymotrypsin | – | No permeation at both | could not penetrate through the membrane | – | – |
| Vitamin B12 | – | 11.0 | – | about 11 fold | almost negligible permeation |
